Source: patent publication US20150056310A1, “COSMETIC METHOD FOR INCREASING COLLAGEN EXPRESSION IN SKIN COMPRISING TOPICALLY APPLYING AN EXTRACT OF QUASSIA AMARA” (BASF Beauty Care Solutions France S.A.S., priority 2013, published 2015)

Tested on: type I collagen protein expression in dermal fibroblast cells
Test: Increase in type I collagen protein expression in dermal fibroblast cells cultured in vitro (immunolabelling, confocal microscopy, image analysis)
Format: cell-based, human
Conditions: 3 days, dermal fibroblasts, ratio relative to nontreated cells (NT = 1), mean of 4 assays
Protocol: A Q. amara wood extract at 5% (w/w) obtained according to Example 1a) was tested on dermal fibroblast cells cultured in vitro. The extract was tested at final concentrations of 0.01% and 0.05% by volume in the culture medium. Preferentially, the final concentration was 0.01% (v/v).
Specifically, dermal fibroblasts from the abdomen of a donor were seeded into a culture chamber (8-well) and amplified in FGM (Fibroblast Growth Media) culture medium containing an antibiotic, normocin, for 3 or 4 days until confluence, the cell stage for which 100% of the cultured cells adhere to one another, forming a uniform cell layer.
The confluent cells were then treated in this same culture medium for 3 days with a Q. amara wood extract at a final concentration in the culture medium of 0.01% or 0.05% (v/v) (Table 1). Other control active ingredients were tested (Table 1): vitamin C (50 μg/ml) or retinaldehyde (1 μM) or TGFβ1 (1 ng/ml) (Transforming Growth Factor β1).
The culture media (FGM) containing the dermal fibroblast cells treated with an active agent, or the nontreated culture media, contained moreover 5 μg/ml of vitamin C, enabling the newly synthesized collagen to be secreted out of the cell.
After 3 days of incubation, the cells were rinsed with a phosphate buffered saline (PBS) buffer containing calcium, magnesium and antibiotics, and then fixed in cold methanol for 10 minutes with a view to performing immunolabelling.
An anti-type I collagen antibody was added to the medium with a view to performing immunolabelling.
The increase in type I collagen protein expression was observed by confocal microscopy (LSM 700, Zeiss, LePecq, France) and quantified by image analysis (FIG. 1).
The type I collagen protein expression was calculated as a ratio relative to a theoretical expression equal to 1 in the case of nontreated fibroblast cells (NT). The mean protein expression was obtained through the mean of 4 distinct assays (Table 1).

CC1=C(/C=C/C(C)=C/C=C/C(C)=C/C=O)C(C)(C)CCC1 [Retinaldehyde, retinaldehyde]
Mean increase in type I collagen protein expression (1 μM): 2.06

O=C1O[C@H]([C@@H](O)CO)C(O)=C1O [Vitamin C, vitamin C]
Mean increase in type I collagen protein expression (50 μg/ml): 2.31

TGFβ: Transforming Growth Factor β1, control active ingredient
Mean increase in type I collagen protein expression (1 ng/ml): 1.42
